From publication PMC10962542, “Inhibition of Aurora‐A/N‐Myc Protein–Protein Interaction Using Peptidomimetics: Understanding the Role of Peptide Cyclization” (Chembiochem, 2023)
Marks after values point to notes of the source that are not given here. Where a SMILES comes first, the peptide text is derived from it.

Columns and labels:
[1] = circular dichroism; set-up: unit not given here; conditions: 25 mM Tris, 150 mM NaCl, 5 mM MgCl2; pH 7.5; 5 °C; 30-120 uM
[2] = biological target: T1, N‐Myc/Aurora‐A interaction (Aurora‐A122‐403‐C290A/C393A) (Homo sapiens, UniProt O14965, C290A/C393A); test: competition fluorescence anisotropy (FA) assay against fluorescein labelled N‐Myc61‐89; assay type: binding; conditions: SD; further: equilibrated 2 h at room temperature
T1 construct: Aurora‐A 122‐403‐C290A/C393A protein was produced as described previously; made in house
T1 sequence (O14965 122-403 C290A/C393A): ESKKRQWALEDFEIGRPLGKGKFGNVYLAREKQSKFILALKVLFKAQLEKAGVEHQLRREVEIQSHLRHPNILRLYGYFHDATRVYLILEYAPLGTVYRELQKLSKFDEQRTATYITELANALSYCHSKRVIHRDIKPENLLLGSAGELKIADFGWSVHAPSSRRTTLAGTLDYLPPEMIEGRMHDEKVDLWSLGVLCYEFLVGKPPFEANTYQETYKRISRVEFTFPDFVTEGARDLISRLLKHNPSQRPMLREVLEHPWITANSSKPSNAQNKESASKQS

[3] = circular dichroism (CD) spectroscopy; assay type: physicochemical; conditions: 150 mM NaCl, 5 mM MgCl2, pH 7.5, 5 °C, n=2, free‐thiol (red) samples with 5 mol equivalents TCEP; for MRE222 (mean residue ellipticity at 222 nm): 25 mM Tris, mean ± SD, SD; for % Helicity (estimated): from MRE222 by equation 7, 25 mM Tris
Summary of the method: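 Peptides at 30–120 μM in 25 mM Tris, 150 mM NaCl, 5 mM MgCl2, pH 7.5 (plus 5 mol eq. TCEP for free sulfhydryl peptides) were scanned in duplicate at 5 °C from 290 to 180 nm, 1 mm pathlength. Buffer-subtracted ellipticity gave mean residue ellipticity, and % helicity was estimated from MRE at 222 nm.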

[4] = tested on: N‐Myc/Aurora‐A interaction; conditions: competition co‐precipitation; cited from earlier work
From the text: (§1) Similarly, Weiss and co‐workers developed a series of conformation‐disrupting Aurora‐A inhibitors based on diaminopyrimidine and pyrazolopyrimidine scaffolds, such as CD532.[8]

[5] = tested on: Aurora‐A and N‐Myc; conditions: in comparison to established allosteric Aurora‐A inhibitors; cited from earlier work
From the text: as §1

[6] = tested on: N‐Myc protein levels; conditions: cited from earlier work
From the text: as §1

CSCC[C@H](NC(=O)[C@H](CCC(=O)O)NC(=O)[C@@H](NC(=O)[C@@H](NC(=O)[C@H](Cc1c[nH]c2ccccc12)NC(=O)[C@H](CO)NC(=O)[C@@H]1CCCN1C(=O)[C@@H]1CCCN1C(=O)[C@H](CCC(=O)O)NC(C)=O)C(C)C)[C@@H](C)O)C(=O)N[C@@H](CC(C)C)C(=O)N[C@@H](CC(C)C)C(=O)N[C@@H](CCC(=O)O)C(=O)N[C@@H](CC(N)=O)C(=O)N[C@@H](CCC(=O)O)C(=O)N[C@@H](CC(C)C)C(=O)N[C@@H](Cc1c[nH]c2ccccc12)C(=O)NCC(=O)N[C@@H](CO)C(=O)N1CCC[C@H]1C(=O)N[C@@H](C)C(=O)N[C@@H](CCC(=O)O)C(=O)N[C@@H](CCC(=O)O)C(N)=O [N‐Myc73‐94]
helicity [1]: -4240
IC50 [2]: 199 ± 13 µM
MRE222 (mean residue ellipticity at 222 nm) [3]: −4235±181 deg cm^−1 dmol^−1 res^−1
% Helicity (estimated) [3]: 13±1%

O=C(O)c1ccc(Nc2ncc3c(n2)-c2ccc(Cl)cc2C(c2c(F)cccc2F)=NC3)cc1 [MLN8054]
disruption of the N‐Myc/Aurora‐A interaction [4]: disrupted

CN(C)C(=O)c1cc2cnc(Nc3ccc(C(=O)NCCCCCCOc4cccc5c4C(=O)N(C4CCC(=O)NC4=O)C5=O)cc3)nc2n1C1CCCC1 (centres unmarked) [HLB‐0532259]
degradation of Aurora‐A and N‐Myc [5]: promote degradation of Aurora‐A and N‐Myc with superior potency

CSCC[C@H](NC(=O)[C@H](CCC(=O)O)NC(=O)[C@@H](NC(=O)[C@@H](NC(=O)[C@H](Cc1c[nH]c2ccccc12)NC(=O)[C@H](CO)NC(=O)[C@@H]1CCCN1C(=O)[C@@H]1CCCN1C(=O)[C@H](CCC(=O)O)NC(C)=O)C(C)C)[C@@H](C)O)C(=O)N[C@@H](CC(C)C)C(=O)N[C@@H](CC(C)C)C(=O)N[C@@H](CCC(=O)O)C(=O)N[C@@H](CC(N)=O)C(=O)N[C@@H](CS)C(=O)N[C@@H](CC(C)C)C(=O)N[C@@H](Cc1c[nH]c2ccccc12)C(=O)NCC(=O)N[C@@H](CS)C(=O)N1CCC[C@H]1C(=O)N[C@@H](C)C(=O)N[C@@H](CCC(=O)O)C(=O)N[C@@H](CCC(=O)O)C(N)=O [N‐Myc73‐94‐E86C/S90C (red)] (Ac-EPPSWVTEMLLENCLWGCPAEE-NH2)
helicity [1]: -6400
IC50 [2]: 203 ± 4 µM
MRE222 (mean residue ellipticity at 222 nm) [3]: −6397±64^[e] deg cm^−1 dmol^−1 res^−1
% Helicity (estimated) [3]: 18±1%

O=C(Nc1ccc(Nc2nccc(Nc3cc(C4CCCC4)[nH]n3)n2)cc1)Nc1cccc(C(F)(F)F)c1 [CD532]
N‐Myc protein levels in xenographs [6]: reduced N‐Myc protein levels
